Several values for one entry are separate records, joined by “and”; a condition that tells them apart may be missing. Equal values may be shown once.
What was measured:
Format in all cases: physicochemical
[1] = Comparative grinding studies (jet micronisation): specific surface area (BET) of batches; conditions: for BET: after grinding, feed pressure, grinding pressure and feed flow differ per batch (batches 1-11, see line of table)
Protocol: In addition, comparative grinding studies, in particular by jet micronisation, were performed so as to obtain powders of the stable and metastable forms having the same specific surface area.
Table II below presents a comparison of the specific surface areas of different batches of the compound of the formula I in which n represents 1 and R in position 7 represents methoxy, obtained by carrying out different grinding conditions.

[2] = Specific surface area (BET) of the crystalline forms; conditions: powder of the crystalline form; paired with the apparent density of the same line
From the text: (§1) The dissolution kinetics promote the xenobiotic bioavailability of this type of active principle. It is also known that the dissolution kinetics are accelerated by increasing the specific surface area. […] Table I below gives the respective values of the apparent density and the specific surface area (BET surface area) for the various crystalline forms.

[3] = Apparent density of the crystalline forms; conditions: for Apparent density: powder of the crystalline form, paired with the specific surface area of the same line
From the text: as §1

With `COc1ccc2c(c1)C(/C=C/C(C)=C/C(=O)O)=CC(C)(C)CO2` [metastable, 2E,4E-(methoxy-7-dimethyl-3-dihydro-2,3-benzoxepin-1-yl-5)-5-methyl-3-pentadien-2,4-oic Acid] the BET ([1]; feed 2.0 bar, grinding 1.0 bar, 4.5 kg/h) was 6.2 m^2/g, the BET ([1]; feed 2.2 bar, grinding 1.2 bar, 5.0 kg/h) was 7.2 m^2/g and the BET ([1]; feed 2.5 bar, grinding 1.5 bar, 1.5 kg/h) was 10.2 m^2/g. The BET ([1]; feed 2.5 bar, grinding 1.5 bar, 2.4 kg/h) was 9.1 m^2/g, the BET ([1]; feed 2.5 bar, grinding 1.5 bar, 6.5 kg/h) was 9.2 m^2/g and the “Specific surface area (BET) after grinding, metastable versus stable form” value ([1]; jet micronisation, similar operating conditions (feed pressure and grinding pressure)) was “greater specific surface area (BET)”. For the same compound, the “Suitability for grinding or micronisation” value ([1]; metastable versus stable form) was “more suitable for grinding or micronisation”, the “Specific surface area or BET” value [2] was 3.1 m^2/g and 2.8 m^2/g and the “Apparent density of metastable form compared with thermodynamically stable form” value ([3]; for the same specific surface area value) was “greater apparent density”. For the same compound, the Apparent density [3] was 0.30.
With `COc1ccc2c(c1)C(/C=C/C(C)=C/C(=O)O)=CC(C)(C)CO2` [stable, 2E,4E-(methoxy-7-dimethyl-3,3-dihydro-2,3-benzoxepin-1-yl-5)-5-methyl-3-pentadien-2,4-oic acid] the Apparent density [3] was 0.18 and 0.29 and 0.16.

Reference: US7470719B2, “Metastable benzoxepne derivatives which can be used in the treatment of dyslipidaemia a therosclerosis and diabetes, pharmaceutical compositions comprising them and processes for the preparation thereof” (Merck Patent GmbH, priority 2002, dated 2008)
